pIC50: −log10 of the molar value. Where two headings read alike, the source gives them in different places.

The subject of one assay is SUDHL5. Kind of assay: Antiproliferation assay SUDHL5 (Assay 7). The conditions noted are these: SUDHL5 cells, CellTiter-Glo, median, read-out: IC50 Antiproli SUDHL5 [M] (median). Format: cell-based. The method, boiled down:
(§1)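 Cells were incubated with compounds for 72 h at 37°C. Viability was then read by CellTiter-Glo luminescence, and a parallel day 0 plate read the same way gave the time-zero signal.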

The subject of the next assay is AMO-1. The experiment in a line: Antiproliferation assay AMO-1 (Assay 7). Format: cell-based. The conditions noted are these: AMO-1 cells, CellTiter-Glo, single determinations, read-out: IC50 Antiproli AMO-1. Summed up:
as §1

The target in another assay is BCL-XL (Homo sapiens (Human), UniProt Q07817). Kind of assay: Protein-protein interaction assay BCL-XL/Bad BH3 peptide (BCL-XL assay), TR-FRET. Format: binding. The conditions noted are these: median. As for the experimental part:
Assay 2 Protein-Protein Interaction Assay: BCL-XL/Bad BH3 Peptide (BCL-XL Assay)
The dose-dependent inhibition by the compounds described in this invention of the interaction between BCL-XL and the BH3 domain of Bad (both human) was determined using a steady state binding competition assay with time-resolved fluorescence energy transfer (TR-FRET) readout. For that purpose BCL-XL (amino acids 1-212, C-terminal fused to a hexahistidine (6× His) tag (SEQ ID 3) and a synthetic Bad BH3-derived peptide of sequence Biotin-PEG2-PEG2-NLWAAQRYGRELRR-Nle-SDEFVDSFKK-amide (SEQ ID 4) served as protein receptor and tracer ligand respectively. The recombinant BCL-XL protein (expressed in Ecol) was purchased from BPS Bioscience (San Diego, Calif., USA). The Bad BH3-derived peptide can be obtained from e.g. Biosyntan (Berlin, Germany).
In the assay 11 different concentrations of each compound (0.1 nM, 0.33 nM, 1.1 nM, 3.8 nM, 13 nM, 44 nM, 0.15 μM, 0.51 μM, 1.7 μM, 5.9 μM and 20 μM) were typically measured as duplicates in the same microtiter plate. For that, 100-fold concentrated DMSO solutions were prepared by serial dilutions (1:3.4) of a 2 mM stock solution in a clear, 384-well microtiter plate (Greiner Bio-One, Frickenhausen, Germany). From there, 50 nl were transferred in a dark test plate (Greiner Bio-One, Frickenhausen, Germany). The assay was initiated by addition of 2 μl of a 2,5-fold concentrated His-BCL-XL solution (usually for a 1 nM end concentration in 5 μl reaction volume) in aqueous assay buffer [50 mM Tris/HCl pH 7, 100 mM sodium chloride (NaCl), 50 μM potassium fluoride (KF), 0.005% Tween-20, 2 mM DTT, 0.1% bovine gamma globulin (BGG)] to the compounds in the assay plate. This was followed by a 10-minute incubation step at 22° C. for pre-equilibration of the putative complex between His-BCL-XL and the compounds. After that, 3 μl of a 1.67-fold concentrated solution (in assay buffer) consisting of Bad BH3-derived peptide (1 nM end concentration) and TR-FRET detection reagents [1.67 nM anti-His-Eu cryptate and 1.67 nM streptavidin-XL665 (both from Cisbio Bioassays, Codolet, France)], were added.
The mixture was incubated in the dark for one hour at 22° C. and then overnight at 4° C. The formation of BCL-XL/Bad complexes was determined by measuring the resonance energy transfer of the anti-His-Eu-cryptate antibody to the streptavidin-XL665 present in the reaction. For that purpose, the fluorescence emission at 620 nm and 665 nm after excitation at 330-350 nm was measured in a TR-FRET measuring instrument, for instance a Rubystar or a Pherastar (both from BMG Lab Technologies, Offenburg, Germany) or a Viewlux (Perkin-Elmer). The ratio of the emission at 665 nm and at 622 nm was used as indicator of the amount of BCL-XL/Bad complexes present.
The resulting data (ratio) were normalized, taking 0% inhibition as the mean value of control measurements (usually 32 data points) where all reagents were included. In this case 50 nl DMSO were used instead of compounds. A 100% inhibition corresponded to the mean value of control measurements (usually 32 data points) where all reagents except BCL-XL were included. IC50 values were determined by regression analysis based on a 4 parameter equation (minimum, maximum, IC50, Hill; Y=Max+(Min−Max)/(1+(X/IC50)^Hill) using the Screener Software (Genedata).

BCL-XL, sequence (Q07817 1-212): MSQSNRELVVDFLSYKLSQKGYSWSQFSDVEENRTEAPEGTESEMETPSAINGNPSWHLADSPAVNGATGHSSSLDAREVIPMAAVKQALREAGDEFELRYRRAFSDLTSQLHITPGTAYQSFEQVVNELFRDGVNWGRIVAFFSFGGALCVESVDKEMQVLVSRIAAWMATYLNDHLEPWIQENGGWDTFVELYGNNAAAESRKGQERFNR

On to `CCc1c2c(nn1C)COCCCCn1c(C(=O)O)c(CCCOc3cc(C)c(Cl)c(C)c3)c3ccc(F)c-2c31` (racemic) [Example 31, (rac)-1-(3-(4-chloro-3,5-dimethylphenoxy)propyl)-12-ethyl-13-fluoro-11-methyl-4,5,6,7,9,11-hexahydropyrazolo[4′,3′:9,10][1]oxa[6]azacycloundecino[8,7,6-hi]indole-2-carboxylic acid], for which the 50% inhibitory concentration (IC50) was 3e-06 M with SUDHL5 (Homo sapiens, SU-DHL-5, 72 h) and more than 20 µM against BCL-XL. Also, the negative-log IC50 (pIC50) in the assay with AMO-1 (Homo sapiens, AMO1, 72 h) is less than 4.48.
`CCc1nn(C)c2c1-c1c(F)ccc3c(CCCOc4cc(C)c(Cl)c(C)c4)c(C(=O)O)n(c13)CCCCOC2` (racemic) [Example 46, (rac)-1-(3-(4-chloro-3,5-dimethylphenoxy)propyl)-12-ethyl-13-fluoro-10-methyl-4,5,6,7,9,10-hexahydropyrazolo[4′,3′:9,10][1]oxa[6]azacycloundecino[8,7,6-hi]indole-2-carboxylic acid]: the IC50 is 2.9e-06 M in the assay with SUDHL5 (Homo sapiens, SU-DHL-5, 72 h) and more than 20 µM on BCL-XL. In addition, the pIC50 with AMO-1 (72 h) is 5.04; with AMO-1 (Homo sapiens, AMO1, 72 h), 5.09.
On to `Cc1nn(C)c2c1-c1c(F)ccc3c(CCCOc4cccc5c4CCCC5)c(C(=O)O)n(c13)CCCCOC2` (racemic) [Example 34, (rac)-13-fluoro-10,12-dimethyl-1-(3-((5,6,7,8-tetrahydronaphthalen-1-yl)oxy)propyl)-4,5,6,7,9,10-hexahydropyrazolo[4′,3′:9,10][1]oxa[6]azacycloundecino[8,7,6-hi]indole-2-carboxylic acid], for which the IC50 in the assay with SUDHL5 (Homo sapiens, SU-DHL-5, 72 h) was 1.7e-06 M; against BCL-XL it was more than 20 µM. Further, the pIC50 with AMO-1 (Homo sapiens, AMO1, 72 h) was 5.16.
In the case of `CCc1nn(C)c2c1-c1c(F)ccc3c(CCCOc4ccc(F)c5ccccc45)c(C(=O)O)n(c13)CCCCOC2` (single isomer, unassigned; enantiomer 1) [Example 42, 3-ethyl-4-fluoro-7-{3-[(4-fluoronaphthalen-1-yl)oxy]propyl}-1-methyl-1,10,11,12,13,15-hexahydropyrazolo[4′,3′:9,10][1,6]oxazacycloundecino[8,7,6-hi]indole-8-carboxylic acid (enantiomer 1)], the IC50 was 2.1e-06 M in the assay with SUDHL5 (72 h) and more than 20 µM at BCL-XL. The negative logarithm of the IC50 (pIC50) with AMO-1 (72 h) was 5.16.
Turning to `CCc1c2c(nn1C)CN(C)CCCCn1c(C(=O)O)c(CCCOc3cccc4ccccc34)c3ccc(F)c-2c31` (racemic) [Example 54, (rac)-3-ethyl-4-fluoro-2,14-dimethyl-7-[3-(1-naphthyloxy)propyl]-10,11,12,13,14,15-hexahydro-2H-pyrazolo[3′,4′:8,9][1,6]diazacycloundecino[10,11,1-hi]indole-8-carboxylic acid], the IC50 was 4.4e-07 M with SUDHL5 (Homo sapiens, SU-DHL-5, 72 h) and more than 20 µM against BCL-XL.
The like results for `CCc1c2c(nn1C)COC/C=C\Cn1c(C(=O)O)c(CCCOc3cccc4ccccc34)c3ccc(F)c-2c31` (racemic) [Example 5, (rac)-(11Z)-3-ethyl-4-fluoro-2-methyl-7-[3-(naphthalen-1-yloxy)propyl]-2,10,13,15-tetrahydro-pyrazolo[4′,3′:9,10][1,6]oxazacycloundecino[8,7,6-hi]indole-8-carboxylic acid] were, in that order, 1.7e-06 M and more than 20 µM.
Regarding `Cc1nn(C)c2c1-c1c(F)ccc3c(CCCOc4cccc5c4CCC5)c(C(=O)O)n(c13)CCCCOC2` (racemic) [Example 35, (rac)-1-(3-((2,3-dihydro-1H-inden-4-yl)oxy)propyl)-13-fluoro-10,12-dimethyl-4,5,6,7,9,10-hexahydropyrazolo[4′,3′:9,10][1]oxa[6]azacycloundecino[8,7,6-hi]indole-2-carboxylic acid], the IC50 was 6e-06 M in the assay on SUDHL5 (Homo sapiens, SU-DHL-5, 72 h) and more than 20 µM on BCL-XL.
For the compound `Cc1nn(C)c2c1-c1c(F)ccc3c(CCCOc4cccc5ccccc45)c(C(=O)O)n(c13)C/C=C\COC2` (racemic) [Example 9, (rac)-(Z)-13-fluoro-10,12-dimethyl-1-(3-(naphthalen-1-yloxy)propyl)-4,7,9,10-tetrahydro-pyrazolo[4′,3′:9,10][1]oxa[6]azacycloundecino[8,7,6-hi]indole-2-carboxylic acid], the 50% inhibitory concentration (IC50) in the assay on SUDHL5 (Homo sapiens, SU-DHL-5, 72 h) is 3.7e-06 M; at BCL-XL, more than 20 µM.
The like results for `CCc1c2c(nn1C)CN(C)CCCCn1c(C(=O)O)c(CCCOc3cccc4c3CCCC4)c3ccc(F)c-2c31` (racemic) [Example 52, (rac)-3-ethyl-4-fluoro-2,14-dimethyl-7-[3-(5,6,7,8-tetrahydronaphthalen-1-yloxy)propyl]-10,11,12,13,14,15-hexahydro-2H-pyrazolo[3′,4′:8,9][1,6]diazacycloundecino[10,11,1-hi]indole-8-carboxylic acid] were, in that order, 2.3e-07 M and more than 20 µM.
Consider `CCc1nn(C)c2c1-c1c(F)ccc3c(CCCOc4cccc5ccccc45)c(C(=O)O)n(c13)C/C=C\COC2` (racemic) [Example 11, (rac)-(Z)-12-ethyl-13-fluoro-10-methyl-1-(3-(naphthalen-1-yloxy)propyl)-4,7,9,10-tetrahydro-pyrazolo[4′,3′:9,10][1]oxa[6]azacycloundecino[8,7,6-hi]indole-2-carboxylic acid], for which the half-maximal inhibitory concentration (IC50) is 2.8e-06 M in the assay with SUDHL5 (Homo sapiens, SU-DHL-5, 72 h) and more than 20 µM against BCL-XL.
For the compound `Cc1cc(OCCCc2c(C(=O)O)n3c4c(c(F)ccc24)-c2c(C)nn(C)c2COCCCC3)cc(C)c1Cl` (racemic) [Example 36, (rac)-1-(3-(4-chloro-3,5-dimethylphenoxy)propyl)-13-fluoro-10,12-dimethyl-4,5,6,7,9,10-hexahydropyrazolo[4′,3′:9,10][1]oxa[6]azacycloundecino[8,7,6-hi]indole-2-carboxylic acid], the IC50 in the assay on SUDHL5 (Homo sapiens, SU-DHL-5, 72 h) is 3.2e-06 M; against BCL-XL, more than 20 µM.
The matching figures for `Cc1c2c(nn1C)COCCCCn1c(C(=O)O)c(CCCOc3ccc(F)c4ccccc34)c3ccc(F)c-2c31` (racemic) [Example 15, (rac)-13-fluoro-1-(3-((4-fluoronaphthalen-1-yl)oxy)propyl)-11,12-dimethyl-4,5,6,7,9,11-hexahydropyrazolo[4′,3′:9,10][1]oxa[6]azacycloundecino[8,7,6-hi]indole-2-carboxylic acid]: 5.3e-07 M and more than 20 µM.
As to `CCc1c2c(nn1C)CN(C)CCCCn1c(C(=O)O)c(CCCOc3cccc4c3CCC4)c3ccc(F)c-2c31` (racemic) [Example 51, (rac)-7-[3-(2,3-dihydro-1H-inden-4-yloxy)propyl]-3-ethyl-4-fluoro-2,14-dimethyl-10,11,12,13,14,15-hexahydro-2H-pyrazolo[3′,4′:8,9][1,6]diazacycloundecino[10,11,1-hi]indole-8-carboxylic acid], the 50% inhibitory concentration (IC50) in the assay with SUDHL5 (Homo sapiens, SU-DHL-5, 72 h) was 2.6e-07 M; on BCL-XL, more than 20 µM.
The matching figures for `Cc1nn(C)c2c1-c1c(F)ccc3c(CCCOc4ccc(F)c5ccccc45)c(C(=O)O)n(c13)CCCCOC2` (racemic) [Example 33, (rac)-13-fluoro-1-(3-((4-fluoronaphthalen-1-yl)oxy)propyl)-10,12-dimethyl-4,5,6,7,9,10-hexahydropyrazolo[4′,3′:9,10][1]oxa[6]azacycloundecino[8,7,6-hi]indole-2-carboxylic acid]: 3e-06 M and more than 20 µM.
